Results taken from patent US11382867B2, “Apomorphine-palmitic acid cocrystal solid particle crystalline form” (LEUKOS BIOTECH, S. L., priority 2018, dated 2022).
Counter-ions that a name gives are not always drawn.

Columns and labels:
Solubility in water = type: physicochemical; conditions: water at RT
Description: Water was progressively added at RT to APO HCl (I) until complete dissolution was reached. Subsequently, the same volume of water was added at RT to the other salts in order to compare their solubility. The mixtures were stirred for 10-15 minutes to allow equilibration. As the salts remained insoluble, the suspensions were diluted with twice the original volume and allowed to equilibrate for another 10-15 minutes at RT.

[1] = In vivo comparative pharmacokinetic and tolerance study, subcutaneous administration; conditions: rats
Description: Apomorphine Hydrochloride (Apo-HCl) was administered subcutaneously to Sprague Dawley rats three times a day for six days (total of eighteen 0.1-mL administrations). Both test items were compared for tolerance and systemic exposure: blood samples were collected from the lateral vein of the tail from all animals on treatment days 1 and 5 at all groups from main animals, samples were analyzed for apomorphine level determination.

[2] = type: physicochemical; conditions: 40±2° C./75±5% RH, 1 week

| Structure (SMILES) | solubility in water (Solubility in water) | volume of water for dissolution (Solubility in water; 10-15 minutes equilibration) [V] | Apomorphine levels in blood (PK profile) [1] | stability [2] | AUC ([1]; compared with Apo-HCl) | Cmax ([1]; compared with Apo-HCl) |
| --- | --- | --- | --- | --- | --- | --- |
| CN1CCc2cccc3c2[C@H]1Cc1ccc(O)c(O)c1-3 [APO HCl (I), Apomorphine hydrochloride] | soluble in water | 54 | rapid decrease of Apomorphine levels | – | – | – |
| CCCCCCCCCCCCCCCC(=O)O.CCCCCCCCCCCCCCCC(=O)O.CN1CCc2cccc3c2[C@H]1Cc1ccc(O)c(O)c1-3 [Form O, Apo-Palmitic Acid (1:2)] | – | – | Sustained Apomorphine levels | remained stable | higher than Apo-HCl | lower than Apo-HCl |
